Where only a bound is given, the exact number is not on record here.

In assay [1] the test system is DLD1 WT cells. The assay is described as follows: DLD1 viability assay (CellTiter-Glo, 7 days), DLD1 WT. It counts as cell-based. The following applies: Homo sapiens, DLD-1, 168 h. The procedure: (§1) The seeding densities are pre-determined from the growth curve kinetics performed to ensure log linear phase of cell growth for these 2 cell lines. These assay plates are then placed in the incubator at 37° C., 5% CO2, relative humidity>90% for a few hours before addition of test compounds. Compounds are dispensed using the Tecan HPD300 or Echo based on the plate map in the appropriate wells of the 384-well plates. […] After addition of the test compounds, the plates are incubated at 37° C., 5% CO2, relative humidity>90% for 7 days. CellTiter-Glo (Promega Cat. No. G7573), ATP detection reagent is prepared according to manufacturer's specifications. Cell assay plates are removed from incubator and bring to room temperature (RT) by letting them sit at bench top for at least 15 min. Using the MultiDrop liquid handler or a multichannel pipette, 35 μL/well of CTG is added and the plates are then placed shakes for 5 seconds, RT. These plates are then incubated for 30 minutes in the dark at RT before measuring luminescence using Spectramax/Enspire/Ensight/Envision/PheraSTAR.

The test system of assay [2] is DLD1 BRCA2 (−/−) cells. Kind of assay: DLD1 viability assay (CellTiter-Glo, 7 days), DLD1 BRCA2 (−/−). The following applies: Homo sapiens, DLD-1, 168 h, read-out: Viability IC50 (μM) DLD1 BRCA2 null. It counts as cell-based. The procedure: as §1

Take `COc1cnc(Cl)cc1-c1cc(C)ncc1C(=O)Nc1nc2ncc(C3CCOC(C)(C)C3)nc2s1` (stereo not drawn) [Example 389, 2′-chloro-N-(6-(2,2-dimethyltetrahydro-2H-pyran-4-yl)thiazolo[4,5-b]pyrazin-2-yl)-5′-methoxy-6-methyl-[4,4′-bipyridine]-3-carboxamide]: the IC50 is greater than 10 µM in assay [1] and 0.001 to 0.1 µM in assay [2].

Turning to `COc1cnc(Cl)cc1-c1cc(C)ncc1C(=O)Nc1nc2ncc(C3=CCC(O)(C(F)F)CC3)nc2s1` (stereo not drawn) [Example 396, 2′-chloro-N-(6-(4-(difluoromethyl)-4-hydroxycyclohex-1-en-1-yl)thiazolo[4,5-b]pyrazin-2-yl)-5′-methoxy-6-methyl-[4,4′-bipyridine]-3-carboxamide], the results for the IC50 in assay [1] and in assay [2] were greater than 10 µM and 0.001 to 0.1 µM, respectively.

Turning to `COc1cnc(Cl)cc1-c1cc(C)ncc1C(=O)Nc1nc2ncc(C3CCC(OC(F)F)CC3)nc2s1` (stereo not drawn) [Example 398, 2′-chloro-N-(6-(4-(difluoromethoxy)cyclohexyl)thiazolo[4,5-b]pyrazin-2-yl)-5′-methoxy-6-methyl-[4,4′-bipyridine]-3-carboxamide], the concentration for half-maximal inhibition (IC50) in assay [1] is greater than 10 µM; in assay [2], 0.001 to 0.1 µM.

Regarding `COc1cnc(Cl)cc1-c1cc(C)ncc1C(=O)Nc1nc2ncc(C3=CCC(OC(F)F)CC3)nc2s1` (stereo not drawn) [Example 405, 2′-chloro-N-(6-(4-(difluoromethoxy)cyclohex-1-en-1-yl)thiazolo[4,5-b]pyrazin-2-yl)-5′-methoxy-6-methyl-[4,4′-bipyridine]-3-carboxamide], the figures for the 50% inhibitory concentration (IC50) in assay [1] and in assay [2] were greater than 10 µM and 0.001 to 0.1 µM, respectively.

Consider `COc1cnc(Cl)cc1-c1cc(C)ncc1C(=O)Nc1nc2ncc(C3=CCC(C)(C#N)CC3)nc2s1` (stereo not drawn) [Example 407, 2′-chloro-N-(6-(4-cyano-4-methylcyclohex-1-en-1-yl)thiazolo[4,5-b]pyrazin-2-yl)-5′-methoxy-6-methyl-[4,4′-bipyridine]-3-carboxamide], for which the IC50 in assay [1] is greater than 10 µM; in assay [2], 0.001 to 0.1 µM.

With `COc1cnc(Cl)cc1-c1cc(C)ncc1C(=O)Nc1nc2ncc(N3C[C@@H](C)OC[C@H]3C)nc2s1` [Example 409, 2′-chloro-N-(6-((2R,5R)-2,5-dimethylmorpholino)thiazolo [4,5-b]pyrazin-2-yl)-5′-methoxy-6-methyl-[4,4′-bipyridine]-3-carboxamide], the IC50 in assay [1] is greater than 10 µM; in assay [2] it was 0.001 to 0.1 µM.

Turning to `COc1cnc(Cl)cc1-c1cc(C)ncc1C(=O)Nc1nc2ncc(C3CCC(C)(C#N)CC3)nc2s1` (stereo not drawn) [Example 410, 2′-chloro-N-(6-(4-cyano-4-methylcyclohexyl)thiazolo[4,5-b]pyrazin-2-yl)-5′-methoxy-6-methyl-[4,4′-bipyridine]-3-carboxamide], the results for the IC50 in assay [1] and in assay [2] were greater than 10 µM and 0.001 to 0.1 µM, respectively.

In the case of `COc1cnc(Cl)cc1-c1cc(C)ncc1C(=O)Nc1nc2ncc(N3C[C@H](C)OC[C@@H]3C)nc2s1` [Example 412, 2′-chloro-N-(6-((2S,5S)-2,5-dimethylmorpholino)thiazolo [4,5-b]pyrazin-2-yl)-5′-methoxy-6-methyl-[4,4′-bipyridine]-3-carboxamide], the results for the half-inhibitory concentration (IC50) in assay [1] and in assay [2] were greater than 10 µM and 0.001 to 0.1 µM, respectively.

In the case of `COc1cnc(Cl)cc1-c1cc(C)ncc1C(=O)Nc1nc2ncc(C3=CCC(OC(F)(F)F)CC3)nc2s1` (stereo not drawn) [Example 420, 2′-chloro-5′-methoxy-6-methyl-N-(6-(4-(trifluoromethoxy)cyclohex-1-en-1-yl)thiazolo[4,5-b]pyrazin-2-yl)-[4,4′-bipyridine]-3-carboxamide], the IC50 in assay [1] lay within 7.5 to 10 µM; in assay [2], 0.001 to 0.1 µM.

For the molecule `COc1ccc(C#N)cc1-c1cc(C)ncc1C(=O)Nc1nc2ncc(C3=CCC(CO)CC3)nc2s1` (stereo not drawn) [Example 421, 4-(5-cyano-2-methoxyphenyl)-N-(6-(4-(hydroxymethyl)cyclohex-1-en-1-yl)thiazolo[4,5-b]pyrazin-2-yl)-6-methylnicotinamide], the half-inhibitory concentration (IC50) in assay [1] is greater than 10 µM; in assay [2], 0.001 to 0.1 µM.

On to `COc1cnc(Cl)cc1-c1cc(C)ncc1C(=O)Nc1nc2ncc(N3C[C@H](C)OC[C@H]3C)nc2s1` [Example 422, 2′-chloro-N-(6-((2S,5R)-2,5-dimethylmorpholino)thiazolo [4,5-b]pyrazin-2-yl)-5′-methoxy-6-methyl-[4,4′-bipyridine]-3-carboxamide], for which the IC50 in assay [1] was greater than 10 µM; in assay [2] it was 0.001 to 0.1 µM.

For `COc1cnc(Cl)cc1-c1cc(C)ncc1C(=O)Nc1nc2ncc(N3CCOC4CCCC43)nc2s1` (stereo not drawn) [Example 424, 2′-chloro-N-(6-(hexahydrocyclopenta[b][1, 4]oxazin-4(4aH)-yl)thiazolo[4,5-b]pyrazin-2-yl)-5′-methoxy-6-methyl-[4,4′-bipyridine]-3-carboxamide], the 50% inhibitory concentration (IC50) in assay [1] is greater than 10 µM; in assay [2], 0.001 to 0.1 µM.

As for `COc1cnc(Cl)cc1-c1cc(C)ncc1C(=O)Nc1nc2ncc(N3CCOC(C(F)F)C3)nc2s1` (stereo not drawn) [Example 429, 2′-chloro-N-(6-(2-(difluoromethyl)morpholino)thiazolo[4,5-b]pyrazin-2-yl)-5′-methoxy-6-methyl-[4,4′-bipyridine]-3-carboxamide], the 50% inhibitory concentration (IC50) was greater than 10 µM in assay [1] and 0.001 to 0.1 µM in assay [2].

As for `COc1cnc(Cl)cc1-c1cc(C)ncc1C(=O)Nc1nc2ncc(N3CCO[C@H](C(F)(F)F)C3)nc2s1` [Example 430, (S)-2′-chloro-5′-methoxy-6-methyl-N-(6-(2-(trifluoromethyl)morpholino)thiazolo[4,5-b]pyrazin-2-yl)-[4,4′-bipyridine]-3-carboxamide], the half-inhibitory concentration (IC50) is greater than 10 µM in assay [1] and 0.001 to 0.1 µM in assay [2].

As to `COc1cnc(Cl)cc1-c1cc(C)ncc1C(=O)Nc1nc2ncc(C3CCN(CC(F)(F)F)CC3)nc2s1` [Example 432, 2′-chloro-5′-methoxy-6-methyl-N-(6-(1-(2,2,2-trifluoroethyl)piperidin-4-yl)thiazolo[4,5-b]pyrazin-2-yl)-[4,4′-bipyridine]-3-carboxamide], the IC50 in assay [1] was greater than 10 µM; in assay [2], 0.001 to 0.1 µM.

Consider `COc1cnc(Cl)cc1-c1cc(C)ncc1C(=O)Nc1nc2ncc([C@@H]3CCO[C@@H](C)C3)nc2s1` [Example 433, 2′-chloro-5′-methoxy-6-methyl-N-(6-((2S,4R)-2-methyltetrahydro-2H-pyran-4-yl)thiazolo[4,5-b]pyrazin-2-yl)-[4,4′-bipyridine]-3-carboxamide], for which the values for the concentration for half-maximal inhibition (IC50) in assay [1] and in assay [2] were greater than 10 µM and 0.001 to 0.1 µM, respectively.

With `COc1cnc(Cl)cc1-c1cc(C)ncc1C(=O)Nc1nc2ncc(N3C[C@H](C)O[C@@H](C)C3)nc2s1` [Example 436, 2′-chloro-N-(6-((2S,6S)-2,6-dimethylmorpholino)thiazolo [4,5-b]pyrazin-2-yl)-5′-methoxy-6-methyl-[4,4′-bipyridine]-3-carboxamide], the IC50 in assay [1] is greater than 10 µM; in assay [2], 0.001 to 0.1 µM.

As to `COc1cnc(Cl)cc1-c1cc(C)ncc1C(=O)Nc1nc2ncc(N3CCO[C@@H](C(F)(F)F)C3)nc2s1` [Example 440, (R)-2′-chloro-5′-methoxy-6-methyl-N-(6-(2-(trifluoromethyl)morpholino)thiazolo[4,5-b]pyrazin-2-yl)-[4,4′-bipyridine]-3-carboxamide], the IC50 was greater than 10 µM in assay [1] and 0.001 to 0.1 µM in assay [2].

With `COc1cnc(Cl)cc1-c1cc(C)ncc1C(=O)Nc1nc2ncc(C3=CCOC(C)C3)nc2s1` (stereo not drawn) [Example 443, 2′-chloro-5′-methoxy-6-methyl-N-(6-(2-methyl-3,6-dihydro-2H-pyran-4-yl)thiazolo[4,5-b]pyrazin-2-yl)-[4,4′-bipyridine]-3-carboxamide], the half-inhibitory concentration (IC50) in assay [1] was greater than 10 µM; in assay [2], 0.001 to 0.1 µM.

For the molecule `COc1cnc(Cl)cc1-c1cc(C2CC2)ncc1C(=O)Nc1nc2ncc(-c3ccnc(C)c3)nc2s1` [Example 445, 2′-chloro-6-cyclopropyl-5′-methoxy-N-(6-(2-methylpyridin-4-yl)thiazolo[4,5-b]pyrazin-2-yl)-[4,4′-bipyridine]-3-carboxamide], the IC50 in assay [1] is greater than 10 µM; in assay [2], 0.001 to 0.1 µM.

In the case of `COc1cnc(Cl)cc1-c1cc(C)ncc1C(=O)Nc1nc2ncc(-c3cccc(C(F)F)n3)nc2s1` [Example 446, 2′-chloro-N-(6-(6-(difluoromethyl)pyridin-2-yl)thiazolo[4,5-b]pyrazin-2-yl)-5′-methoxy-6-methyl-[4,4′-bipyridine]-3-carboxamide], the results for the concentration for half-maximal inhibition (IC50) in assay [1] and in assay [2] were greater than 10 µM and 0.001 to 0.1 µM, respectively.

With `COc1cnc(Cl)cc1-c1cc(C)ncc1C(=O)Nc1nc2ncc(N3CC[C@H](OC)[C@@H](F)C3)nc2s1` [Example 452, 2′-chloro-N-(6-((3S,4S)-3-fluoro-4-methoxypiperidin-1-yl)thiazolo[4,5-b]pyrazin-2-yl)-5′-methoxy-6-methyl-[4,4′-bipyridine]-3-carboxamide], the IC50 in assay [1] is greater than 10 µM; in assay [2] it was 0.001 to 0.1 µM.

On to `CNC1CCN(c2cnc3nc(NC(=O)c4cnc(C)cc4-c4cc(Cl)ncc4OC)sc3n2)CC1(F)F` (stereo not drawn) [Example 455, 2′-chloro-N-(6-(3,3-difluoro-4-(methylamino)piperidin-1-yl)thiazolo[4,5-b]pyrazin-2-yl)-5′-methoxy-6-methyl-[4,4′-bipyridine]-3-carboxamide], for which the figures for the IC50 in assay [1] and in assay [2] were greater than 10 µM and 0.001 to 0.1 µM, respectively.

Take `COc1cnc(Cl)cc1-c1cc(C)ncc1C(=O)Nc1nc2ncc(N3CCC4(CCCO4)CC3)nc2s1` [Example 459, N-(6-(1-oxa-8-azaspiro[4.5]decan-8-yl)thiazolo[4,5-b]pyrazin-2-yl)-2′-chloro-5′-methoxy-6-methyl-[4,4′-bipyridine]-3-carboxamide]: the half-inhibitory concentration (IC50) in assay [1] was greater than 10 µM; in assay [2] it was 0.001 to 0.1 µM.
